Assays:
[1] = LNP size and polydispersity index by Dynamic Light Scattering (Malvern Zetasizer); assay type: physicochemical
[2] = mRNA encapsulation efficiency by Ribogreen RNA assay; assay type: physicochemical; details: for % encap: eGFP mRNA; for E.E. (encapsulation efficiency): N/P 10
Description: Lipid based nanoparticles are produced by microfluidic mixing of an mRNA solution in sodium acetate buffer (100 mM, pH4) and lipid solution in a 2:1 volume ratio at a speed of 9 mL/min using the NanoAssemblr Benchtop (Precision Nanosystems). The lipid solution contained a mixture of the ionizable lipid of interest, DSPC, DOPC or DOPE (Avanti), Cholesterol (Sigma) and DMG-PEG2000 (Sunbright GM-020, NOF corporation. The 4 lipids were mixed at 6 different molar ratios. LNPs were dialyzed against TBS (10000 times more TBS volume than LNP volume) using slide-a-lyzer dialysis cassettes (20K MWCO, 3 mL, ThermoFisher). Size, polydispersity and zeta potential were measured with a Zetasizer Nano (Malvern). mRNA encapsulation was measured by standard Ribogreen RNA assay (Invitrogen). […]
(§1) LNP formulations were prepared using a modified procedure of a method previously described for siRNA LNP synthesis. All formulations were prepared in a sterile manner with a N/P ratio of 10. All lipid components were dissolved in ethanol at molar ratios of 50:10:38.5:1.5 mol % (ionizable lipid/DSPC/Cholesterol/DMG-PEG2000). DSPC, Cholesterol and DMG-PEG2000 were purchased from Avanti Polar Lipids (Alabaster, Alabama, USA), while the Ionizable lipids are synthesized in-house. The final lipid concentration in ethanol was fixed at 10 mg/mL. E7 mRNA was dissolved in 100 mM acetate buffer (Sigma Aldrich, Saint-Louis, Missouri, USA) pH 4. The ethanol and aqueous phase were combined using a microfluidic mixer (NanoAssemblr® BenchTop (Precision Nanosystems, Vancouver, BC) in a 2:1 (aqueous:ethanol) ratio. Formulations were dialysed afterwards against 1× Sterile TBS pH 7.4 (Sigma Aldrich, Saint-Louis, Missouri, USA) using Slide-A-Lyzer® dialysis cassettes with a MWCO of 20.000 Da (Thermo Scientific, Massachusetts, USA) for 18 hours. Afterwards, the purified formulations were concentrated using Amicon ultra centrifugal filters (EMD Millipore, Massachusetts, USA). Finally, the exact concentration and E.E. % was determined through a Ribogreen Assay prior to final dilution with TBS (100 μg/mL E7 mRNA per formulation. All formulations were characterized for size and PDI using Dynamic Light Scattering Zetasizer Nano-ZS (Malvern Pananlytical Ltd., Malvern, UK) and stored afterwards at 4° C. The physico-chemical characteristics of each formulation can be found in Table 5.

[3] = LNP size and polydispersity index by Dynamic Light Scattering (Malvern Zetasizer); assay type: physicochemical; details: N/P 10
Description: Lipid based nanoparticles are produced by microfluidic mixing of an mRNA solution in sodium acetate buffer (100 mM, pH4) and lipid solution in a 2:1 volume ratio at a speed of 9 mL/min using the NanoAssemblr Benchtop (Precision Nanosystems). The lipid solution contained a mixture of the ionizable lipid of interest, DSPC, DOPC or DOPE (Avanti), Cholesterol (Sigma) and DMG-PEG2000 (Sunbright GM-020, NOF corporation. The 4 lipids were mixed at 6 different molar ratios. LNPs were dialyzed against TBS (10000 times more TBS volume than LNP volume) using slide-a-lyzer dialysis cassettes (20K MWCO, 3 mL, ThermoFisher). Size, polydispersity and zeta potential were measured with a Zetasizer Nano (Malvern). mRNA encapsulation was measured by standard Ribogreen RNA assay (Invitrogen).
Size and Poly Dispersity Index were assessed by Dynamic Light Scattering (DLS) on a Malvern Zetasizer. MC-3 is the ionizable lipid used in Onpattro and is considered the state-of-the art.
as §1

[4] = Body weight after intratumoral LNP administration (B16F10 model); assay type: in vivo, C57/BL6 mice; details: B16F10 model (Example 2.5); after intratumoral administration of 10 μg mRNA LNP
[5] = Body weight after intratumoral LNP administration (CT26 model); assay type: in vivo, Balb/c mice; details: after intratumoral administration of 10 μg mRNA LNP
Description: Fluc mRNA expression in tumor and liver was assessed at 6 an 24 hours post injection. By injecting mice peritoneally with D-luciferin (Promega), bioluminescence can be measured through in vivo imaging (IVIS Spectrum System). Bioluminescence is generated through an oxidation reaction which occurs between the enzyme luciferase derived from the firefly mRNA encapsulated in the LNP and its substrate D-luciferin. The Living Image Software (PerkinElmer) was used to specify tumor and liver ‘region of interests (ROIs) after which the average radiance (p/s/cm^2/sr) was calculated within these ROIs. To monitor tolerability of different LNP types used, bodyweight at 6 and 24 hours post injection was compared to baseline bodyweight at day of randomization.
Balb/c mice were subcutaneously inoculated with CT26 tumor cells. When tumors reached a mean volume of 50-100 mm^3, tumors were injected with the respective mRNA LNPs (10 μg mRNA; 20 μl volume; TBS buffer) or with control buffer.

[6] = Table 3, LNP ionizable lipid/phospholipid/cholesterol/DMG-PEG2000 about 50/10/38.5/1.5, DOPE, except MC-3 with DSPC, eGFP mRNA
[7] = Table 3, LNP ionizable lipid/phospholipid/cholesterol/DMG-PEG2000 about 50/10/38.5/1.5, DOPE, except MC-3 with DSPC, eGFP mRNA, in nm (unit assumed)
[8] = Table 3, LNP ionizable lipid/phospholipid/cholesterol/DMG-PEG2000 about 50/10/38.5/1.5, DOPE, except MC-3 with DSPC
[9] = Table 5, ionizable lipid/DSPC/Chol/DMG-PEG2000 50/10/38.5/1.5 mol %, E7 mRNA
[10] = Table 2, LNP ionizable lipid/DOPE/cholesterol/DMG-PEG2000 about 50/10/38.5/1.5, eGFP mRNA
[11] = Table 2, LNP ionizable lipid/DOPE/cholesterol/DMG-PEG2000 about 50/10/38.5/1.5, eGFP mRNA, mRNA/ionizable lipid molar ratio 1/10, in nm (unit assumed)
[12] = Table 2, LNP ionizable lipid/DOPE/cholesterol/DMG-PEG2000 about 50/10/38.5/1.5
[13] = Table 7, Ratio 1: 50/10/38.5/1.5 mol % ionizable lipid/DSPC (SS-EC: DOPE)/Chol/DMG-PEG2000
[14] = Table 6 (Example 4, HA mRNA), ionizable lipid/DSPC/Chol/DMG-PEG2000 50/10/38.5/1.5 mol %, N/P 10
[15] = Table 6 (Example 4, HA mRNA), ionizable lipid/DSPC/Chol/DMG-PEG2000 50/10/38.5/1.5 mol %

CCCCCCCC/C=C\CCCCCCCC(=O)OCC(CNC(=O)OCCOCCOC(=O)NCCCN1CCCCC1CC)OC(=O)CCCCCCC/C=C\CCCCCCCC (centres unmarked) [E-Ac6e-DOg]
PDI [1, 6]: 0.241
size [1, 7]: 67.3
% encap [2, 8]: 100%

CCCCCCCC/C=C\CCCCCCCC(=O)OCC(CNC(=O)OCCOCCOC(=O)NCCN1CCCCCC1)OC(=O)CCCCCCC/C=C\CCCCCCCC (centres unmarked) [E-Ac7-Dog]
PDI [1, 6]: 0.258
size [1, 7]: 93.05
% encap [2, 8]: 100%

CCCCCCCC/C=C\CCCCCCCC(=O)OCC(CNC(=O)OCCOCCOC(=O)NCCN(C)C)OC(=O)CCCCCCC/C=C\CCCCCCCC (centres unmarked) [E-Adm-Dog]
PDI [1, 6]: 0.217
size [1, 7]: 59.56
% encap [2, 8]: 100%

CCCCCCCC/C=C\CCCCCCCC(=O)OCC(CNC(=O)OCCOC(C)(C)OCCOC(=O)NCCCN1CCCCC1CC)OC(=O)CCCCCCC/C=C\CCCCCCCC (centres unmarked) [K-Ac6e-DOg]
PDI [1, 6]: 0.268
size [1, 7]: 75.8
% encap [2, 8]: 95%

CCCCCCCC/C=C\CCCCCCCC(=O)OCC(CNC(=O)OCCOC(C)(C)OCCOC(=O)NCCN1CCCCCC1)OC(=O)CCCCCCC/C=C\CCCCCCCC (centres unmarked) [K-Ac7-DOg]
PDI [1, 6]: 0.108
size [1, 7]: 62.26
% encap [2, 8]: 93%
E.E. (encapsulation efficiency) [2, 9]: 49%
PDI [3, 9]: 0.130
size [3, 9]: 164.8 nm

CCCCCCCCCCCCN(CCCCCCCCCCCC)C(=O)OCCOC(C)(C)OCCOC(=O)NCCN(C(C)C)C(C)C [K-Adip-Dda]
PDI [1, 10]: 0.292
size [1, 11]: 78.59
% encap [2, 12]: 97%

CCCCCCCC/C=C\CCCCCCCC(=O)OCC(CNC(=O)OCCOC(C)(C)OCCOC(=O)NCCN(C)C)OC(=O)CCCCCCC/C=C\CCCCCCCC (centres unmarked) [K-Adm-DOg]
PDI [1, 6]: 0.157
size [1, 7]: 91.9
% encap [2, 8]: 94%

CCCCCCCCCCCCN(CCCCCCCCCCCC)C(=O)OCCOC(C)(C)OCCOC(=O)NCCN(C)C [K-Adm-Dda]
PDI [1, 10]: 0.197
size [1, 11]: 65.56
% encap [2, 12]: 100%

CCCCC/C=C\C/C=C\CCCCCCCCC(CCCCCCCC/C=C\C/C=C\CCCCC)OC(=O)CCCN(C)C [MC3, reference compound]
PDI [1, 10]: 0.103
size [1, 11]: 73.14
PDI [1, 6]: 0.08
size [1, 7]: 73.33
body weight [4]: significant body weight loss
% encap [2, 12]: 100%
% encap [2, 8]: 94%
E.E. (encapsulation efficiency) [2, 9]: 99%
E.E. (encapsulation efficiency) [2, 13]: 96%
PDI [3, 9]: 0.106
size [3, 9]: 67.57 nm
PDI [3, 13]: 0.117
size [3, 13]: 74 nm
body weight [5]: significant body weight loss

CCCCCCCC/C=C\CCCCCCCC(=O)OCC(CNC(=O)OCCSSCCOC(=O)NCCCN1CCCCC1CC)OC(=O)CCCCCCC/C=C\CCCCCCCC (centres unmarked) [S-Ac6e-DOg]
PDI [1, 6]: 0.311
size [1, 7]: 63.86
% encap [2, 8]: 95%
E.E. (encapsulation efficiency) [2, 9]: 92%
PDI [3, 9]: 0.266
size [3, 9]: 178.1 nm

CCCCCCCCCCCCN(CCCCCCCCCCCC)C(=O)OCCSSCCOC(=O)NCCN1CCCCCC1 [S-Ac7-Dda]
PDI [1, 10]: 0.223
size [1, 11]: 74.28
% encap [2, 12]: 95%

CCCCCCCCCCCCCCCCCCN(CCCCCCCCCCCCCCCCCC)C(=O)OCCSSCCOC(=O)NCCN1CCCCCC1 [S-Ac7-Dsa]
PDI [1, 10]: 0.188
size [1, 11]: 71.05
PDI [1, 6]: 0.158
size [1, 7]: 89.44
% encap [2, 12]: 99%
% encap [2, 8]: 93%

CCCCCCCCCCCCN(CCCCCCCCCCCC)C(=O)OCCSSCCOC(=O)NCCN(C(C)C)C(C)C [S-Adip-Dda]
PDI [1, 10]: 0.197
size [1, 11]: 86.95
% encap [2, 12]: 98%

CCCCCCCCCCCCCCCCCCN(CCCCCCCCCCCCCCCCCC)C(=O)OCCSSCCOC(=O)NCCN(C(C)C)C(C)C [S-Adip-Dsa]
PDI [1, 10]: 0.153
size [1, 11]: 70.9
% encap [2, 12]: 101%

CCCCCCCCC(CCCCCC)C(=O)OCCN(CCOC(=O)C(CCCCCC)CCCCCCCC)C(=O)OCCSSCCOC(=O)NCCN(C)C (centres unmarked) [S-Adm-DHDa]
PDI [1, 14]: 0.184
size [1, 14]: 79.075 nm
E.E. (encapsulation efficiency) [2, 15]: 98%

CCCCCCCC/C=C\CCCCCCCC(=O)OCC(CNC(=O)OCCSSCCOC(=O)NCCN(C)C)OC(=O)CCCCCCC/C=C\CCCCCCCC (centres unmarked) [S-Adm-DOg]
PDI [1, 6]: 0.3
size [1, 7]: 68.08
% encap [2, 8]: 98%

CCCCCCCCCCCCN(CCCCCCCCCCCC)C(=O)OCCSSCCOC(=O)NCCN(C)C [S-Adm-Dda]
PDI [1, 10]: 0.44
size [1, 11]: 115.3
% encap [2, 12]: 100%

CCCCCCCCCCCCCCCCCCN(CCCCCCCCCCCCCCCCCC)C(=O)OCCSSCCOC(=O)NCCN(C)C [S-Adm-Dsa]
PDI [1, 10]: 0.042
size [1, 11]: 82.11
PDI [1, 6]: 0.137
size [1, 7]: 91.15
% encap [2, 12]: 98%
% encap [2, 8]: 100%

CCCCCCCCC(CCCCCC)C(=O)OCCN(CCOC(=O)C(CCCCCC)CCCCCCCC)C(=O)OCCSSCCOC(=O)NCCN1CCN(C)CC1 (centres unmarked) [S-Amp-DHDa]
PDI [1, 14]: 0.1515
size [1, 14]: 106.3 nm
E.E. (encapsulation efficiency) [2, 15]: 99%
